melting point: 151.5 to 153 °C
SMILES: C[Si](C)(CC(CN)CC(=O)O)C1CC1 (stereo not shown)

— patent US9353134B2, “Silicon-containing carboxylic acid derivative” (KEMPHYS LTD., priority 2012, dated 2016)
